Laboratory results: patent US10624342B2, “Synergistic weed control from applications of haloxyfop and ALS inhibitor herbicides” (priority 2014, dated 2020)
Where “and” joins values, the source holds several entries; their conditions need not be identical. Equal values may be shown once.

Tests used:
Format in all cases: in vivo
[1] = system: small flower flatsedge, Cyperus difformis; assay: Field trial in rice, foliar post-emergence visual weed control: small flower flatsedge; settings: CYPDI; for Mean % weed control: 14DAA; for % Visual Weed Control: 7DAA
Method: (§1) Field trials were conducted in Taiwan, China and Colombia with applications made in the area of naturally occurring weed populations. All treatments were applied using a randomized complete block trial design, with 3 to 4 replications per treatment. Plot size varied and was 1-6 meters×2-12 meters (width×length). Rice was seeded into the plots, and the rice crop was maintained as a normal commercial crop with appropriate fertilizer and maintenance treatments as needed. Rice size at application varied from the 2 to 4 leaf stage, and weeds were at the 2 to 5 leaf stage. All treatments were foliar applied as post-emergence treatments using backpack sprayers with compressed air or carbon dioxide (CO2) propellant. Spray pressure varied from 25 to 35 pounds per square inch (psi). Spray nozzles used were flat fan, with 1 to 4 nozzle booms used to apply from 200 to 450 L/ha of water as spray diluent. All treatments were mixed in water at appropriately formulated product rates to achieve the desired rates as shown based on a unit area of application (hectare). Commercially available products were used to make all applications, consisting of FENCER® 250D and BENGALA® 250D (25 grams active ingredient per liter (g ai/L) penoxsulam in an oil dispersion formulation); GALLANT™ SUPER and VERDICT™ SUPER EC (108 g ai/L haloxyfop-R-methyl in an emulsifiable concentrate formulation); GULLIVER® (500 grams active ingredient per kilograms (g ai/kg) WP (wettable powder)) and NOMINEE® SL (100 g ai/L bispyribac-sodium wettable powder).
(§2) Treatments consisted of haloxyfop-R-methyl and an ALS mode of action herbicide (penoxsulam, bispyribac-sodium, bensulfuron-methyl, or azimsulfuron), applied alone or in combination.
(§3) The treated plots and control plots were rated blind at various intervals after application. Ratings were based on a scale of 0-100%, as discussed above, wherein 0% indicates complete growth of the undesired vegetation and 100% indicates complete prevention of the undesired vegetation.
(§4) Colby's equation was used to determine the herbicidal effects expected from the mixtures, as described above. The results were measured at the evaluation intervals provided in Tables 1-5 after the first application of the compositions. […] The combinations tested, application rates and ratios employed, plant species tested, and results are included in Tables 1-5 below.
(§5) Colby's equation was used to determine the herbicidal effects expected from the mixtures (S. R. Colby, Calculating Synergistic and Antagonistic Responses of Herbicide Combinations, WEEDS 15, p. 22 (1967)). A t-test (alpha=0.05) between Colby predictions and observed combinations was used to test for significant differences indicating synergy or antagonism using replicate data. The results presented in Tables 1-5 were significant according to the described criteria.

[2] = system: crabgrass, Digitaria horizontalis; assay: Field trial in rice, foliar post-emergence visual weed control: crabgrass; settings: DIGHO
Method: as §1, §2, §3, §4, §5

[3] = system: itch grass, Rottboellia exaltata; assay: Field trial in rice, foliar post-emergence visual weed control: itch grass; settings: ROOEX
Method: as §1, §2, §3, §4, §5

[4] = system: Chinese sprangletop, Leptochloa chinensis; assay: Field trial in rice, foliar post-emergence visual weed control: Chinese sprangletop; settings: LEFCH
Method: as §1, §2, §3, §4, §5

[5] = system: bullgrass, Eleusine indica; assay: Field trial in rice, foliar post-emergence visual weed control: bullgrass; settings: ELEIN, 7DAA
Method: as §1, §2, §3, §4
as §5, with “The results presented in Tables 1-5 were significant according to the described criteria.” left out

[6] = system: rice flatsedge, Cyperus iria; assay: Field trial in rice, foliar post-emergence visual weed control: rice flatsedge; settings: CYPIR
Method: as §1, §2, §3, §4, §5

[7] = system: barnyardgrass, Echinochloa crus-galli; assay: Field trial in rice, foliar post-emergence visual weed control: barnyardgrass; settings: ECHCG
Method: as §1, §2, §3, §4, §5

[8] = system: monochoria, Monochoria vaginalis; assay: Field trial in rice, foliar post-emergence visual weed control: monochoria; settings: MOOVA, 7DAA
Method: as §1, with “Commercially available products were used to make all applications, consisting of FENCER® 250D and BENGALA® 250D (25 grams active ingredient per liter (g ai/L) penoxsulam in an oil dispersion formulation); GALLANT™ SUPER and VERDICT™ SUPER EC (108 g ai/L haloxyfop-R-methyl in an emulsifiable concentrate formulation); GULLIVER® (500 grams active ingredient per kilograms (g ai/kg) WP (wettable powder)) and NOMINEE® SL (100 g ai/L bispyribac-sodium wettable powder).” left out
Colby's equation was used to determine the herbicidal effects expected from the mixtures, as described above. The results were measured at the evaluation intervals provided in Tables 1-5 after the first application of the compositions. […]

COc1cnc(OC)n2nc(NS(=O)(=O)c3c(OCC(F)F)cccc3C(F)(F)F)nc12 [Penoxsulam]
Mean % weed control ([1]; 10 g ai/ha alone): 93.3%
Mean % weed control ([2]; 7DAA, 8 g ai/ha alone): 0.0%
Mean % weed control ([2]; 7DAA, 16 g ai/ha alone): 0.0%
Mean % weed control ([2]; 15DAA, 8 g ai/ha alone): 0.0%
Mean % weed control ([2]; 15DAA, 16 g ai/ha alone): 0.0%
Mean % weed control ([2]; 15DAA, 32 g ai/ha alone): 0.0%
Mean % weed control ([3]; 7DAA, 32 g ai/ha alone): 3.3%
Mean % weed control ([3]; 15DAA, 8 g ai/ha alone): 0.0%
Mean % weed control ([3]; 28DAA, 8 g ai/ha alone): 0.0%
Mean % weed control ([3]; 28DAA, 16 g ai/ha alone): 12.5%
Mean % weed control ([4]; 7DAA, 10 g ai/ha alone): 0.0%
Mean % weed control ([4]; 7DAA, 20 g ai/ha alone): 0.0%
Mean % weed control ([4]; 7DAA, 30 g ai/ha alone): 0.0%
Mean % weed control ([4]; 14DAA, 10 g ai/ha alone): 0.0%
Mean % weed control ([4]; 14DAA, 20 g ai/ha alone): 0.0%
Mean % weed control ([4]; 14DAA, 30 g ai/ha alone): 0.0%
Mean % weed control ([4]; 28DAA, 30 g ai/ha alone): 0.0%
Mean % weed control ([5]; 8 g ai/ha alone): 0.0%
Mean % weed control ([5]; 16 g ai/ha alone): 0.0%
Mean % weed control ([5]; 32 g ai/ha alone): 0.0%
Mean % weed control ([6]; 7DAA, 8 g ai/ha alone): 62.0%
Mean % weed control ([6]; 7DAA, 32 g ai/ha alone): 87.0%
Mean % weed control ([6]; 15DAA, 8 g ai/ha alone): 85.0%
Mean % weed control ([7]; 7DAA, 10 g ai/ha alone): 63.3%
Mean % weed control ([7]; 7DAA, 15 g ai/ha alone): 95.7%
Mean % weed control ([7]; 21DAA, 15 g ai/ha alone): 93.3%
Mean % weed control ([7]; 28DAA, 7.5 g ai/ha alone): 53.3%
Mean % weed control ([7]; 28DAA, 10 g ai/ha alone): 56.7%
Mean % weed control ([7]; 28DAA, 15 g ai/ha alone): 91.7%
Mean % weed control ([7]; 28DAA, 30 g ai/ha alone): 98.3%
Mean % weed control ([8]; 5 g ai/ha alone): 90.0%

COc1cc(OC)nc(Oc2cccc(Oc3nc(OC)cc(OC)n3)c2C(=O)O)n1 [Bispyribac-Sodium, bispyribac-sodium]
Mean % weed control ([7]; 7DAA, 20 g ai/ha alone): 53.3%
Mean % weed control ([7]; 7DAA, 40 g ai/ha alone): 76.7%
Mean % weed control ([7]; 14DAA, 20 g ai/ha alone): 35.0%
Mean % weed control ([7]; 28DAA, 20 g ai/ha alone): 20.0%
Mean % weed control ([7]; 28DAA, 40 g ai/ha alone): 88.3%

COc1cc(OC)nc(NC(=O)NS(=O)(=O)c2c(-c3nnn(C)n3)cnn2C)n1 [Azimsulfuron, 1-(4,6-dimethoxypyrimidin-2-yl)-3-[1-methyl-4-(2-methyl-2H-tetrazol-5-yl)pyrazol-5-ylsulfonyl]urea]
Mean % weed control ([4]; 14DAA, 10 g ai/ha alone): 0.0%
Mean % weed control ([4]; 14DAA, 20 g ai/ha alone): 0.0%
Mean % weed control ([7]; 7DAA, 40 g ai/ha alone): 89.0%

COC(=O)c1ccccc1CS(=O)(=O)NC(=O)Nc1nc(OC)cc(OC)n1 [Bensulfuron-Methyl, bensulfuron-methyl]
% Visual Weed Control ([1]; 10 g ai/ha alone): 90%
% Visual Weed Control ([1]; 20 g ai/ha alone): 92%
% Visual Weed Control ([7]; 28DAA, 20 g ai/ha alone (Table 4)): 0%
% Visual Weed Control ([7]; 28DAA, 40 g ai/ha alone (Table 4)): 23%

COC(=O)C(C)Oc1ccc(Oc2ncc(C(F)(F)F)cc2Cl)cc1 [Haloxyfop-methyl (R), haloxyfop-R-methyl]
% Visual Weed Control ([1]; 2 g ai/ha alone): 0%
% Visual Weed Control ([1]; 8 g ai/ha alone): 0%
Mean % weed control ([1]; 16 g ai/ha alone): 0.0%
Mean % weed control ([1]; 32 g ai/ha alone): 0.0%
Mean % weed control ([2]; 7DAA, 8 g ai/ha alone): 71.7%
Mean % weed control ([2]; 15DAA, 4 g ai/ha alone): 35.0%
Mean % weed control ([3]; 7DAA, 8 g ai/ha alone): 11.7%
Mean % weed control ([3]; 15DAA, 4 g ai/ha alone): 0.0%
Mean % weed control ([3]; 15DAA, 16 g ai/ha alone): 77.5%
Mean % weed control ([3]; 28DAA, 4 g ai/ha alone): 0.0%
Mean % weed control ([4]; 7DAA, 8 g ai/ha alone): 0.0%
Mean % weed control ([4]; 14DAA, 2 g ai/ha alone): 0.0%
Mean % weed control ([4]; 14DAA, 4 g ai/ha alone): 0.0%
Mean % weed control ([4]; 28DAA, 8 g ai/ha alone): 0.0%
Mean % weed control ([5]; 4 g ai/ha alone): 21.7%
Mean % weed control ([6]; 7DAA, 8 g ai/ha alone): 0.0%
Mean % weed control ([6]; 7DAA, 16 g ai/ha alone): 0.0%
Mean % weed control ([6]; 15DAA, 8 g ai/ha alone): 0.0%
Mean % weed control ([6]; 15DAA, 16 g ai/ha alone): 11.3%
Mean % weed control ([7]; 7DAA, 4 g ai/ha alone): 0.0%
Mean % weed control ([7]; 7DAA, 8 g ai/ha alone): 0.0%
Mean % weed control ([7]; 7DAA, 27 g ai/ha alone): 0.0%
Mean % weed control ([7]; 14DAA, 8 g ai/ha alone): 0.0%
Mean % weed control ([7]; 21DAA, 27 g ai/ha alone): 0.0%
Mean % weed control ([7]; 28DAA, 4 g ai/ha alone): 0.0%
% Visual Weed Control ([7]; 28DAA, 4 g ai/ha alone (Table 4)): 0%
Mean % weed control ([7]; 28DAA, 8 g ai/ha alone): 0.0% and 6.7%
% Visual Weed Control ([7]; 28DAA, 8 g ai/ha alone (Table 4)): 0%
Mean % weed control ([7]; 28DAA, 13.5 g ai/ha alone): 0.0%
Mean % weed control ([7]; 28DAA, 27 g ai/ha alone): 0.0%
Mean % weed control ([8]; 16 g ai/ha alone): 0.0%
